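These data come from cells grown in 96-well plates and exposed to compound for 48 hours at five concentrations. Abbreviation: GI50, concentration required for 50% inhibition of growth. TGI marks complete inhibition of growth.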

Here are results for 23 compounds from PubChem BioAssay (NCI).

Test systems include MDA-MB-435; BT-549 breast; MDA-N; MDA-MB-231 breast; DMS 273 small cell lung; LXFL 529 NSCLC; HOP-18 NSCLC; XF 498 CNS.
Holding throughout (experiment): inhibition of tumour cell growth, NCI panel, 48 h

As for `C=C(C)[C@@H]1CC[C@@H]2C(=CC[C@]3(C)C([C@H](C)CC/C=C(/C)C(=O)O)CC[C@@]23C)[C@@]1(C)CCC(=O)O` (stereo partly specified), the TGI was determined as 89.7 µM in the assay on MDA-MB-435, 51 µM with BT-549 breast, 72.2 µM with MDA-N and 60.2 µM with MDA-MB-231 breast.

In the case of `NC(=O)COc1ccc(Br)cc1Br`, the TGI with DMS 273 small cell lung, in the assay on LXFL 529 NSCLC and in the assay with HOP-18 NSCLC was more than 100 µM throughout.

As to `O=C1/C(=C/c2ccccc2)CN(C(=O)Oc2ccccc2)C/C1=C\c1ccccc1`, the TGI in the assay with DMS 273 small cell lung, in the assay on LXFL 529 NSCLC and in the assay on HOP-18 NSCLC was more than 100 µM throughout.

As for `O=[P+](O)c1cc2c3ccccc3ccc2c2ccccc12`, the TGI in the assay with DMS 273 small cell lung, with XF 498 CNS, in the assay with LXFL 529 NSCLC and in the assay on HOP-18 NSCLC was more than 100 µM throughout.

Consider `O=c1cc(-c2ccccc2)[nH]c2c(F)ccc(F)c12`, for which the TGI in the assay on DMS 273 small cell lung, with LXFL 529 NSCLC and with HOP-18 NSCLC was more than 100 µM each time.

As for `C/C(=C\COc1ccc2ccc(=O)oc2c1)CCC(=O)C(C)(C)O`, the TGI with MDA-MB-435 was 59.2 µM; with BT-549 breast, 74.9 µM; with MDA-N, more than 100 µM; in the assay with MDA-MB-231 breast, more than 100 µM.

Regarding `CC(=O)[O-].CC(=O)[O-].CC(=O)[O-].CC(=O)[O-].CO.CO.CO.[Rh+2].[Rh+2].c1ccc(-c2ccccn2)nc1`, in the assay on DMS 273 small cell lung, the GI50 is more than 100 µM and the TGI is more than 100 µM. For the same compound, in the assay on LXFL 529 NSCLC, the GI50 is 55.6 µM and the TGI is more than 100 µM.

Turning to `CC(C)N(C(=O)C12C3C4C5C3C1(C(=O)N(C(C)C)C(C)C)C5C42)C(C)C` (stereo unspecified), the TGI in the assay on DMS 273 small cell lung was more than 56.7 µM; in the assay with XF 498 CNS, more than 100 µM; in the assay on LXFL 529 NSCLC, more than 100 µM; with HOP-18 NSCLC it was more than 100 µM.

`O=C1c2ccccc2-c2c1c1ccccc1c(=O)n2CCCNCCO`: the GI50 in the assay with MDA-MB-435 was 0.895 µM; in the assay with BT-549 breast it was 1.65 µM; in the assay with MDA-MB-231 breast, 1.5 µM. Also, the TGI was 4.92 µM in the assay on MDA-MB-435, 5.9 µM with BT-549 breast and 6.55 µM in the assay on MDA-MB-231 breast.

For `Cn1c(-c2cccs2)cc(-c2ccsc2)c1-c1ccsc1`, the TGI in the assay with MDA-MB-435, in the assay on BT-549 breast, with MDA-N and in the assay with MDA-MB-231 breast was more than 100 µM in each case.

On to `COC(=O)[C@@H](C)C[C@H](Cc1ccccc1)NC(=O)c1csc([C@@H](C[C@H](C(C)C)N(C)C(=O)[C@@H](NC(=O)CN(C)C)C2CC2)OC(C)=O)n1`, for which the GI50 was 0.00192 µM with MDA-MB-435, 0.0127 µM in the assay on BT-549 breast and 0.0858 µM in the assay on MDA-MB-231 breast. Also, the figures for the TGI with MDA-MB-435, in the assay on BT-549 breast and in the assay with MDA-MB-231 breast were less than 0.0153 µM, 0.857 µM and more than 16.5 µM, respectively.

Consider `CC(C)=CCCC1(C)C=Cc2c(ccc3c2[nH]c2cc(O)c(C)cc23)O1` (stereo unspecified), for which the results for the GI50 with DMS 273 small cell lung and in the assay on LXFL 529 NSCLC were 4.96 µM and 5.15 µM, respectively. The TGI was 9.81 µM in the assay with DMS 273 small cell lung, more than 2.5 µM in the assay with XF 498 CNS and 10.9 µM in the assay on LXFL 529 NSCLC.

With `O=C(N/N=C\c1cc(Br)cc(Br)c1O)N/N=C/c1cc(Br)cc(Br)c1O`, the figures for the GI50 in the assay on MDA-MB-435, in the assay on BT-549 breast and in the assay with MDA-MB-231 breast were 2.67 µM, 5.54 µM and 4.18 µM, respectively. Moreover, the TGI in the assay on MDA-MB-435 came out at 17.8 µM; in the assay with BT-549 breast, 25.7 µM; with MDA-MB-231 breast it was 17.5 µM.

`CCOC(=O)Nc1ccc2nc(Sc3ccc(Cl)cc3)sc2c1`: the values for the GI50 with MDA-MB-435, in the assay on BT-549 breast and in the assay with MDA-MB-231 breast were 0.222 µM, 11.6 µM and 4.47 µM, respectively. Moreover, the TGI in the assay on MDA-MB-435 amounted to 0.561 µM; in the assay on BT-549 breast, 46.3 µM; in the assay on MDA-MB-231 breast it was 34 µM.

As to `N#CSc1cc(-c2nc3ccccc3o2)ccc1N`, the GI50 was 24 µM with MDA-MB-435, 23.8 µM in the assay on BT-549 breast and more than 100 µM in the assay with MDA-MB-231 breast. The results for the TGI in the assay on MDA-MB-435, in the assay with BT-549 breast and in the assay with MDA-MB-231 breast were 64.1 µM, more than 60.9 µM and more than 100 µM, respectively.

On to `O=C(/C=C/c1ccc(OCCCOc2ccc(/C=C/C(=O)c3ccc(Cl)cc3)cc2)cc1)c1ccc(Cl)cc1`, for which the TGI with DMS 273 small cell lung, in the assay on XF 498 CNS, in the assay with LXFL 529 NSCLC and in the assay with HOP-18 NSCLC was more than 100 µM throughout.

As for `COc1ccc(OC)c(/C=C/C(=O)c2ccc(SC)cc2)c1`, the figures for the GI50 in the assay on MDA-MB-435, in the assay with BT-549 breast and with MDA-MB-231 breast were 2.09 µM, 2.8 µM and 54 µM, respectively. Besides, the TGI in the assay with MDA-MB-435 was 8.91 µM; in the assay on BT-549 breast, 7.01 µM; in the assay with MDA-MB-231 breast, more than 100 µM.

Consider `CCN(Cc1cccc(C)c1)c1ccc(CO)c(Cl)c1`, for which the figures for the GI50 with MDA-MB-435, in the assay on BT-549 breast and in the assay on MDA-MB-231 breast were 15.7 µM, 13.4 µM and 14.1 µM, respectively. Besides, the TGI with MDA-MB-435 came out at 32.1 µM; in the assay on BT-549 breast, 27.2 µM; in the assay on MDA-MB-231 breast it was 30.8 µM.

For the compound `Cc1ccc(S(=O)(=O)N/N=C/CN2C(=O)c3ccccc3C2=O)cc1`, the TGI with DMS 273 small cell lung, with XF 498 CNS and with LXFL 529 NSCLC was more than 100 µM each time.

Consider `Cn1cc(C2=C(c3cccc(Cl)c3)C(=O)NC2=O)c2ccccc21`, for which the GI50 in the assay with MDA-MB-435 is 12.6 µM; with BT-549 breast, more than 25 µM; with MDA-MB-231 breast, more than 12.6 µM. The TGI in the assay with MDA-MB-435, in the assay on BT-549 breast and in the assay on MDA-MB-231 breast was more than 25 µM in each case.

With `S=C1NC2=C(CCOc3c2ccc2ccccc32)C(c2ccc(Cl)cc2)N1` (stereo unspecified), the figures for the GI50 with MDA-MB-435, in the assay on BT-549 breast and with MDA-MB-231 breast were 41.5 µM, 25.8 µM and 10.6 µM, respectively. Further, the TGI in the assay on MDA-MB-435 is more than 100 µM; in the assay on BT-549 breast it was 91.9 µM; in the assay with MDA-MB-231 breast, 67.6 µM.

Turning to `c1ccc(-c2nn(-c3ccccc3)[n+](-c3ccccc3-c3ccccc3)n2)cc1`, the GI50 with MDA-MB-435 was 0.461 µM; in the assay with BT-549 breast, 0.461 µM; in the assay with MDA-MB-231 breast, 0.235 µM. In addition, the TGI in the assay on MDA-MB-435 was found to be 2.82 µM; in the assay on BT-549 breast, 7.87 µM; in the assay on MDA-MB-231 breast it was 9.21 µM.

Take `O=C(CN1CCN(c2cc3c(cc2F)c(=O)c(C(=O)O)cn3C2CC2)CC1)Nc1ccc(C(=O)/C=C/c2ccccc2)cc1`: the GI50 is 2.94 µM with MDA-MB-435, 3.55 µM in the assay on BT-549 breast and 1.84 µM in the assay with MDA-MB-231 breast. Besides, the results for the TGI in the assay with MDA-MB-435, with BT-549 breast and with MDA-MB-231 breast were more than 100 µM, more than 100 µM and 5.13 µM, respectively.
